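Cells were grown in 96-well plates and exposed to each compound for 48 hours at five concentrations; endpoints were interpolated linearly between bracketing concentrations, or set to the highest concentration if not reached. The concentration for 50% growth inhibition is given as GI50.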 The source made the active and inactive calls. Cut-off read from the data, not from the text of the source: active = GI50 up to about 1.1 µM and inactive = higher.
What was measured:
Experiment in all cases: growth of human tumour cells (NCI), 48 h
786-0 = system: 786-0
DMS-114 = system: DMS-114
EKVX = system: EKVX
HCC 2998 = system: HCC 2998
HCT-116 = system: HCT-116
HOP-62 = system: HOP-62
HOP-92 = system: HOP-92
IGROV-1 = system: IGROV-1
M14 = system: M14
Malme-3M = system: Malme-3M
NCI-H522 = system: NCI-H522
OVCAR-4 = system: OVCAR-4
OVCAR-5 = system: OVCAR-5
SF-268 = system: SF-268
SK-MEL-5 = system: SK-MEL-5
SN12C = system: SN12C
SW-620 = system: SW-620
U-251 = system: U-251
BT-549 = system: BT-549
Hs-578T = system: Hs-578T

Measured: GI50

CCNc1c(C(=O)N(CC)CC)c(=O)[nH]c2ncccc12
inactive: 786-0 > 100 µM | DMS-114 > 100 µM | EKVX > 100 µM | HCC 2998 > 100 µM | HCT-116 > 100 µM | HOP-62 > 100 µM | HOP-92 > 100 µM | IGROV-1 > 100 µM | M14 > 100 µM | Malme-3M > 100 µM | NCI-H522 > 100 µM | OVCAR-4 > 100 µM | OVCAR-5 > 100 µM | SF-268 > 100 µM | SK-MEL-5 > 100 µM | SN12C > 100 µM | SW-620 > 100 µM | U-251 > 100 µM

COc1ccc(/C=C(\C(C)=O)C(=O)Nc2ccccc2)cc1
inactive: 786-0 > 100 µM | DMS-114 > 100 µM | EKVX > 100 µM | HCC 2998 > 100 µM | HCT-116 > 100 µM | HOP-62 > 100 µM | HOP-92 > 100 µM | IGROV-1 > 100 µM | M14 > 100 µM | Malme-3M > 100 µM | NCI-H522 > 100 µM | OVCAR-4 > 100 µM | OVCAR-5 > 100 µM | SF-268 > 100 µM | SK-MEL-5 > 100 µM | SN12C > 100 µM | SW-620 > 100 µM | U-251 > 100 µM

COc1ccc(NC(=O)C(=O)c2c(O)c3ccc(O)cc3oc2=O)c([N+](=O)[O-])c1
inactive: 786-0 > 100 µM | DMS-114 > 100 µM | EKVX > 100 µM | HCC 2998 > 100 µM | HCT-116 > 100 µM | HOP-92 > 100 µM | IGROV-1 > 100 µM | M14 > 100 µM | Malme-3M > 100 µM | NCI-H522 > 100 µM | OVCAR-4 > 100 µM | OVCAR-5 > 100 µM | SF-268 > 100 µM | SK-MEL-5 > 100 µM | SW-620 > 100 µM

N#Cc1ccccc1NC(=O)/C(=N\Nc1ccc([N+](=O)[O-])cc1)C1C(=O)NC(=O)NC1=O
inactive: 786-0 > 100 µM | DMS-114 > 100 µM | EKVX > 100 µM | HCC 2998 > 100 µM | HCT-116 > 100 µM | HOP-62 > 100 µM | HOP-92 3.69 µM | IGROV-1 > 100 µM | M14 > 100 µM | Malme-3M > 100 µM | NCI-H522 92.3 µM | OVCAR-4 > 100 µM | OVCAR-5 > 100 µM | SF-268 > 100 µM | SK-MEL-5 > 100 µM | SW-620 > 100 µM | U-251 > 100 µM

OC(C1CO1)C(O)C1CO1 (centres undefined)
inactive: 786-0 8.69 µM | BT-549 120 µM | DMS-114 35.6 µM | EKVX 90.4 µM | HCC 2998 44.6 µM | HCT-116 45.8 µM | HOP-62 7.26 µM | HOP-92 > 75.5 µM | Hs-578T 80.9 µM | IGROV-1 68.1 µM | M14 18.6 µM | Malme-3M 55.7 µM | NCI-H522 46.9 µM | OVCAR-4 84.9 µM | OVCAR-5 77.1 µM | SK-MEL-5 29.1 µM | SN12C 20.7 µM | U-251 27 µM

O=C(Nc1c(Cl)cc([N+](=O)[O-])cc1Cl)C(=O)C(C(=O)c1ccncc1)C1OC(=O)c2ccccc21 (centres undefined)
inactive: 786-0 > 100 µM | DMS-114 > 100 µM | EKVX > 100 µM | HCC 2998 > 100 µM | HCT-116 > 100 µM | HOP-62 > 100 µM | HOP-92 > 100 µM | IGROV-1 > 100 µM | M14 > 100 µM | Malme-3M > 100 µM | NCI-H522 > 100 µM | OVCAR-4 > 100 µM | OVCAR-5 > 100 µM | SF-268 > 100 µM | SN12C > 100 µM | SW-620 > 100 µM | U-251 > 100 µM

Cc1cc2c(cc1C)[n+]([O-])c(C(=O)CC(=O)C(=O)Nc1ccccc1C(C)C)c(C)[n+]2[O-]
inactive: 786-0 > 100 µM | DMS-114 > 100 µM | EKVX > 100 µM | HCC 2998 > 100 µM | HCT-116 > 100 µM | HOP-62 > 100 µM | HOP-92 > 100 µM | IGROV-1 > 100 µM | M14 > 100 µM | Malme-3M > 100 µM | NCI-H522 > 100 µM | OVCAR-4 > 100 µM | OVCAR-5 > 100 µM | SF-268 > 100 µM | SK-MEL-5 > 100 µM | SN12C > 100 µM | SW-620 > 100 µM | U-251 > 100 µM

O=C(N/C=C1\C(=O)Oc2ccccc2C1=O)Nc1ccccc1
inactive: 786-0 43.3 µM | DMS-114 44.9 µM | EKVX > 100 µM | HCC 2998 58.1 µM | HCT-116 37.7 µM | HOP-92 25.8 µM | IGROV-1 51.2 µM | M14 52.8 µM | Malme-3M 17 µM | NCI-H522 58.5 µM | OVCAR-4 > 100 µM | OVCAR-5 61.5 µM | SF-268 31.8 µM | SK-MEL-5 25.8 µM | SN12C 32.8 µM | SW-620 61.2 µM | U-251 40.2 µM

CN(C)c1ccc(C2CC(=O)C(C#N)=C(c3ccccc3)NN2C)cc1 (centres undefined)
inactive: 786-0 8.73 µM | DMS-114 30.3 µM | HCC 2998 22.1 µM | HCT-116 11.5 µM | HOP-62 12.8 µM | HOP-92 21.1 µM | M14 5.04 µM | Malme-3M 5.65 µM | NCI-H522 3.56 µM | OVCAR-4 31.6 µM | OVCAR-5 > 100 µM | SF-268 17.2 µM | SK-MEL-5 3.54 µM | SN12C 13.6 µM | SW-620 3.97 µM | U-251 15.5 µM

CC(C)c1ccc(O)c(Cc2cc(C(C)C)cc(Cc3cc(C(C)C)ccc3O)c2O)c1
inactive: 786-0 1.7 µM | DMS-114 1.61 µM | EKVX 2.65 µM | HCC 2998 1.78 µM | HCT-116 1.78 µM | HOP-62 1.69 µM | HOP-92 1.79 µM | IGROV-1 2.46 µM | M14 1.66 µM | Malme-3M 1.5 µM | NCI-H522 1.57 µM | OVCAR-4 1.39 µM | OVCAR-5 1.75 µM | SF-268 1.82 µM | SK-MEL-5 1.62 µM | SN12C 1.77 µM | SW-620 1.72 µM | U-251 1.69 µM

CC1=NN(c2ccccc2)C(=O)C1/N=N/c1ccc(Br)cc1C (centres undefined)
inactive: 786-0 82.2 µM | DMS-114 > 100 µM | EKVX > 100 µM | HCC 2998 > 100 µM | HCT-116 81.3 µM | HOP-62 27.9 µM | HOP-92 38.6 µM | IGROV-1 67.3 µM | M14 90.4 µM | Malme-3M > 100 µM | OVCAR-4 62.7 µM | OVCAR-5 > 100 µM | SF-268 > 100 µM | SK-MEL-5 > 100 µM | SN12C > 100 µM | SW-620 > 100 µM | U-251 38.3 µM

— ChEMBL document CHEMBL1201862, “PubChem BioAssay data set” (2004)
